# Results from patent publication US6451804B1, “Heteroalkylamino-substituted bicyclic nitrogen heterocycles” (Syntex (U.S.A.) LLC, priority 1999, dated 2002).
# Structures can show the parent of a compound that is named as a salt.
row,Compound,melting point [°C]
1,C[C@@H](CO)Nc1ncc2c(n1)N(C1CCNCC1)C(=O)N(c1ccccc1Cl)C2 (as salt: hydrochloride),244 to 248
2,"Cc1ccccc1N1Cc2cnc(NC3CCN(Cc4ccccc4)CC3)nc2N(C)C1=O (as salt: hydrochloride) [Compound 2-9, 7-(1-benzylpiperidin-4-ylamino)-1-methyl-3-ortho-tolyl-3,4-dihydropyrimido[4,5-d]pyrimidin-2(1H)-one]",253 to 253.9
3,"Cc1ccccc1N1Cc2cnc(NC3CCN(C[C@@H](O)CO)CC3)nc2N(C)C1=O (as salt: hydrochloride) [Compound 2-14, (R)-7-[1-(2,3-dihydroxypropyl)piperidin-4-ylamino]-1-methyl-3-ortho-tolyl-3,4-dihydropyrimido[4,5-d]pyrimidin-2(1H)-one]",195 to 208
4,"Cc1ccccc1N1Cc2cnc(NC3CCN(CCC#N)CC3)nc2N(C)C1=O (as salt: hydrochloride) [Compound 2-15, 7-[1-(2-cyanoethyl)-piperidin-4-ylamino]-1-methyl-3-ortho-tolyl-3,4-dihydropyrimido[4,5-d]pyrimidin-2(1H)-one]",195 to 208.5
5,"CN(C)C(=O)CN1CCC(CNc2ncc3c(n2)NC(=O)N(c2ccccc2Cl)C3)CC1 (as salt: hydrochloride) [Compound 2-19, 3-(2-chlorophenyl)-7-[(1-dimethylaminocarbonylmethylpiperidin-4-ylmethyl)amino]-3,4-dihydropyrimido[4,5-d]pyrimidin-2(1H)-one]",210.2 to 214.4
6,"N#CCN1CCC(CNc2ncc3c(n2)NC(=O)N(c2ccccc2Cl)C3)CC1 (as salt: hydrochloride) [Compound 2-22, 3-(2-chlorophenyl)-7-[(1-cyanomethylpiperidin-4-ylmethyl)amino]-3,4-dihydropyrimido[4,5-d]pyrimidin-2(1H)-one]",207.2 to 207.7
7,"NC(=O)CN1CCC(CNc2ncc3c(n2)NC(=O)N(c2ccccc2Cl)C3)CC1 (as salt: hydrochloride) [Compound 2-23, 3-(2-chlorophenyl)-7-[(1-aminocarbonylmethylpiperidin-4-ylmethyl)amino]-3,4-dihydropyrimido[4,5-d]pyrimidin-2(1H)-one]",229.9 to 232.2
8,"O=C(O)CN1CCC(CNc2ncc3c(n2)NC(=O)N(c2ccccc2Cl)C3)CC1 (as salt: hydrochloride) [Compound 2-24, 3-(2-chlorophenyl)-7-[(1-hydroxycarbonylmethylpiperidin-4-ylmethyl)amino]-3,4-dihydropyrimido[4,5-d]pyrimidin-2(1H)-one]",215 to 219
9,"C[C@@H](O)[C@H](CO)Nc1ncc2c(n1)N(C)C(=O)N(c1ccccc1Cl)C2 (stereo in doubt) (as salt: hydrochloride) [Compound 1-13, 3-(2-chlorophenyl)-7-((1S,2R)-2-hydroxy-1-hydroxymethyl-propylamino)-1-methyl-3,4-dihydropyrimido-[4,5-d]pyrimidin-2(1H)-one]",199 to 204
10,"Cc1ccccc1N1Cc2cnc(NC3CCN(CCO)CC3)nc2N(C)C1=O [Compound 2-13, 7-[1-(2-hydroxyethyl)-piperidin-4-ylamino]-1-methyl-3-ortho-tolyl-3,4-dihydropyrimido[4,5-d]pyrimidin-2(1H)-one]",250 to 257

# The next lines start with the values.
row,melting point [°C],Compound
1,169.7 to 175.1,"CCOCC(COCC)N1C(=O)N(c2ccccc2Cl)Cc2cnc(N[C@H](C)CO)nc21 (as salt: hydrochloride) [Compound 3-21, (R)-3-(2-chlorophenyl)-7-[(2-hydroxy-1-methylethyl)amino]-1-(2-ethoxy-1-ethoxymethylethyl)-3,4-dihydropyrimido[4,5-d]pyrimidin-2(1H)-one]"
2,203.1 to 204.1,"CN1C(=O)N(c2ccccc2Cl)Cc2cnc(NC(C)(C)C(O)CO)nc21 (stereo not drawn) (as salt: hydrochloride) [Compound 3-28, 3-(2-chlorophenyl)-7-(2,3-dihydroxy-1,1-dimethylpropylamino)-1-methyl-3,4-dihydropyrimido[4,5-d]pyrimidin-2(1H)-one]"
3,203.7 to 207.8,"CN1C(=O)N(c2ccccc2Cl)Cc2cnc(NC3(CO)CCCCC3)nc21 (as salt: hydrochloride) [Compound 3-43, 3-(2-chlorophenyl)-7-[(1-hydroxymethylcyclohexyl)amino]-1-methyl-3,4-dihydropyrimido[4,5-d]pyrimidin-2(1H)-one]"
4,233.4 to 236.3,"CN1C(=O)N(c2ccccc2Cl)Cc2cnc(NC3CCC(=O)CC3)nc21 (as salt: hydrochloride) [Compound 3-46, 3-(2-chlorophenyl)-7-(4-oxo-cyclohexylamino)-1-methyl-3,4-dihydropyrimido[4,5-d]pyrimidin-2(1H)-one]"
5,218.5 to 221,"O=C1N(c2ccccc2Cl)Cc2cnc(N[C@H]3CC[C@H](O)CC3)nc2N1Cc1ccccc1 (as salt: hydrochloride) [Compound 3-48, 1-benzyl-3-(2-chlorophenyl)-7-(trans-4-hydroxycyclohexylamino)-3,4-dihydropyrimido[4,5-d]pyrimidin-2(1H)-one]"
6,161 to 172,"Cc1ccccc1N1Cc2cnc(N[C@H](C)[C@@H](O)CO)nc2NC1=O (as salt: hydrochloride) [Compound 4-4, (R,R)-7-(2,3-dihydroxy-1-methylpropylamino)-3-ortho-tolyl-3,4-dihydropyrimido[4,5-d]pyrimidin-2(1H)-one]"
7,> 300,"CC(=O)O[C@H]1CC[C@H](Nc2ncc3c(n2)NC(=O)N(c2ccccc2Cl)C3)CC1 (as salt: hydrochloride) [Compound 4-13, 7-(trans-4-acetyloxycyclohexylamino)-3-(2-chlorophenyl)-3,4-dihydropyrimido[4,5-d]pyrimidin-2(1H)-one]"
8,208.3 to 217.9,"O=C1Nc2nc(NCC3CCC(O)CC3)ncc2CN1c1ccccc1Cl (stereo not drawn) (as salt: hydrochloride) [Compound 4-17, 3-(2-chlorophenyl)-7-[(4-hydroxycyclohexylmethyl)amino]-3,4-dihydropyrimido[4,5-d]pyrimidin-2(1H)-one]"
9,> 260,"COC(=O)O[C@H]1CC[C@H](Nc2ncc3c(n2)NC(=O)N(c2ccccc2Cl)C3)CC1 (as salt: hydrochloride) [Compound 4-20, 3-(2-chlorophenyl)-7-(trans-4-methoxycarbonyloxycyclohexylamino)-3,4-dihydropyrimido[4,5-d]pyrimidin-2(1H)-one]"
10,267 to 267.6,"NC(=O)O[C@H]1CC[C@H](Nc2ncc3c(n2)NC(=O)N(c2ccccc2Cl)C3)CC1 (as salt: hydrochloride) [Compound 4-21, 7-(trans-4-carbamoyloxycyclohexylamino)-3-(2-chlorophenyl)-3,4-dihydropyrimido[4,5-d]pyrimidin-2(1H)-one]"
11,269 to 271,"CNC(=O)O[C@H]1CC[C@H](Nc2ncc3c(n2)NC(=O)N(c2ccccc2Cl)C3)CC1 (as salt: hydrochloride) [Compound 4-22, 3-(2-chlorophenyl)-7-(trans-4-methylaminocarbonyloxycyclohexylamino)-3,4-dihydropyrimido[4,5-d]pyrimidin-2(1H)-one]"
12,204 to 210,"O=C1CCC(Nc2ncc3c(n2)NC(=O)N(c2ccccc2Cl)C3)CC1 (as salt: hydrochloride) [Compound 4-23, 3-(2-chlorophenyl)-7-(4-oxo-cyclohexylamino)-3,4-dihydropyrimido[4,5-d]pyrimidin-2(1H)-one]"
13,173.6 to 189.7,"O=C1Nc2nc(NC3CCC4(CC3)OCCO4)ncc2CN1c1ccccc1Cl (as salt: hydrochloride) [Compound 4-24, 3-(2-chlorophenyl)-7-(1,4-dioxaspiro[4.5]dec-8-ylamino)-3,4-dihydropyrimido[4,5-d]pyrimidin-2(1H)-one]"
14,119.8 to 121.8,"Cc1ccccc1N1Cc2cnc(N[C@H](C)[C@@H](O)CO)nc2N(C)C1=O [Compound 3-23, 7-((R,R)-2,3-dihydroxy-1-methylpropylamino)-3-ortho-tolyl-1-methyl-3,4-dihydropyrimido[4,5-d]pyrimidin-2(1H)-one]"
15,212 to 215,"COC(=O)CN1C(=O)N(c2ccccc2Cl)Cc2cnc(N[C@H]3CC[C@H](O)CC3)nc21 [Compound 3-49, 3-(2-chlorophenyl)-7-(trans-4-hydroxycyclohexylamino)-1-methoxycarbonylmethyl-3,4-dihydropyrimido[4,5-d]pyrimidin-2(1H)-one]"
16,230 to 240,"O=C(O)CN1C(=O)N(c2ccccc2Cl)Cc2cnc(N[C@H]3CC[C@H](O)CC3)nc21 [Compound 3-53, 3-(2-chlorophenyl)-7-(trans-4-hydroxycyclohexylamino)-1-hydroxycarbonylmethyl-3,4-dihydropyrimido[4,5-d]pyrimidin-2(1H)-one]"
17,130.8,"N#CCN1C(=O)N(c2ccccc2Cl)Cc2cnc(N[C@H]3CC[C@H](O)CC3)nc21 [Compound 3-55, 3-(2-chlorophenyl)-7-(trans-4-hydroxycyclohexylamino)-1-cyanomethyl-3,4-dihydropyrimido[4,5-d]-pyrimidin-2(1H)-one]"
18,96.6 to 122.8,"O=C1N(c2ccccc2Cl)Cc2cnc(N[C@H]3CC[C@H](O)CC3)nc2N1CCO [Compound 3-56, 3-(2-chlorophenyl)-7-(trans-4-hydroxycyclohexylamino)-1-(2-hydroxyethyl)-3,4-dihydropyrimido[4,5-d]pyrimidin-2(1H)-one]"
19,> 300,"O=CO[C@H]1CC[C@H](Nc2ncc3c(n2)NC(=O)N(c2ccccc2Cl)C3)CC1 [Compound 4-15, 3-(2-chlorophenyl)-7-(trans-4-formyloxycyclohexylamino)-3,4-dihydropyrimido[4,5-d]pyrimidin-2(1H)-one]"
20,292.8 to 293.2,"CS(=O)(=O)N[C@H]1CC[C@H](Nc2ncc3c(n2)NC(=O)N(c2ccccc2Cl)C3)CC1 [Compound 4-28, 3-(2-chlorophenyl)-7-[trans-4-(methanesulfonylamino)cyclohexylamino]-3,4-dihydropyrimido[4,5-d]pyrimidin-2(1H)-one]"
